This is an account of results in patent US9789080B2, “Ophthalmic formulations of mycophenolic acid” (INSITE VISION INCORPORATED, priority 2015, dated 2017).

The structures appear in SMILES notation.

The nature of series [1]: dissolution of active ingredient in aqueous medium as a function of pH. The series is classed as physicochemical. The following applies: pH of aqueous medium adjusted to greater than 7.0. The source says: In an embodiment of the present disclosure, the pH of an ophthalmic formulation including mycophenolic acid or salt thereof in an aqueous medium with a reduced level of oxygen dissolved in the ophthalmic formulation can be adjusted to a pH of greater than 7.0, e.g., at least about 7.4, such as at least about 7.8. In an embodiment, the ophthalmic formulation of the present disclosure has a pH in a range of 7.4 to 7.8 with a specification of ±0.3 pH units.

The conditions of series [2]: Merck Index 14th Ed. 2006, monograph no. 6327; cited from earlier work.

On to `COc1c(C)c2c(c(O)c1C/C=C(\C)CCC(=O)O)C(=O)OC2` [mycophenolic acid], for which the “dissolution of the active ingredient” value in series [1] is “facilitates dissolution”. The “solubility in cold water” value in series [2] is on record as “almost insoluble”.
